Measurements published in paper PMC11855827, “High-Throughput Screening of Five Compound Libraries for Anthelmintic Activity and Toxicity Leads to the Discovery of Two Flavonoid Compounds” (International Journal of Molecular Sciences, 2025).
Where two headings read alike, the source gives them in different places.

Tested on: C. elegans
Assay: microbe, parasite or virus in culture
Conditions: Caenorhabditis elegans
[1] = 0 h, read-out: Percentage of motility inhibition 0 h, Table S2, C. elegans SS assay, 110 μM, 0 h, averages of 4 data points
[2] = 24 h, read-out: Percentage of motility inhibition 24 h, Table S2, C. elegans SS assay, 110 μM, 24 h, averages of 4 data points
[3] = 0 h, read-out: Percentage of motility inhibition 0 h
[4] = 24 h, read-out: Percentage of motility inhibition 24 h

Row | Compound | inhibition at 110 µM [1] [%] | inhibition at 110 µM [2] [%] | also measured
1 | O=C(O)c1cccc2nc3ccccc3nc12 [Phenazine‐1‐carboxylic acid] | 0 | 11 | –
2 | O=C(CCc1ccc(O)cc1)c1c(O)cc(O)cc1O[C@@H]1O[C@H](CO)[C@@H](O)[C@H](O)[C@H]1O [Phlorizin] | 0 | 2 | –
3 | CC1=C[C@H]2[C@@]3(O)[C@H](C)[C@@H](O)[C@]4(O)[C@H]([C@@H]3C=C(CO)C[C@]2(O)C1=O)C4(C)C [Phorbol] | 0 | 6 | –
4 | CC(=O)NS(=O)(=O)c1ccc(NC(=O)c2ccccc2C(=O)O)cc1 [Phthalylsulfacetamide] | 32 | 2 | –
5 | O=C(O)c1ccccc1C(=O)Nc1ccc(S(=O)(=O)Nc2nccs2)cc1 [Phthalylsulfathiazole] | 12 | 0 | –
6 | COc1cc(C(=O)O[C@H]2[C@@H]3C=CO[C@@H](O[C@@H]4O[C@H](CO)[C@@H](O)[C@H](O)[C@H]4O)[C@@H]3[C@@]3(CO)O[C@@H]23)ccc1O [Picroside II] | 0 | 13 | –
7 | O=C(/C=C/c1ccccc1)OC[C@H]1O[C@@H](O[C@@H]2OC=C[C@H]3[C@H](O)[C@@H]4O[C@]4(CO)[C@@H]23)[C@H](O)[C@@H](O)[C@@H]1O [Picroside I] | 6 | 17 | –
8 | CC(C)(O)[C@@H]1[C@H]2OC(=O)[C@@H]1[C@]1(O)C[C@H]3O[C@]34C(=O)O[C@H]2[C@]14C [Picrotin] | 0 | 0 | –
9 | O=C(O)[C@H]1C2CCC(CC2)[C@@H]1Nc1nc(-c2c[nH]c3ncc(F)cc23)ncc1F [Pimodivir] | 7 | 9 | –
10 | O=C1C[C@@H](c2ccccc2)Oc2cc(O)cc(O)c21 [Pinocembrin] | 44 | 5 | –
11 | COc1cc(O)c2c(c1)O[C@H](c1ccccc1)CC2=O [Pinostrobin] | – | – | inhibition at 110 µM [3]: 1%; inhibition at 110 µM [4]: 7%
12 | CCn1cc(C(=O)O)c(=O)c2cnc(N3CCNCC3)nc21 [Pipemidic acid] | 31 | 14 | –
13 | C1CNCCN1 [Piperazine] | 3 | 0 | –
14 | O=C(/C=C/C=C/c1ccc2c(c1)OCO2)N1CCCCC1 [Piperine] | 0 | 21 | –
15 | CC1=CC(=O)C(C(C)C)CC1 (stereo not shown) [Piperitone] | 10 | 11 | –
16 | CC(C)CNC(=O)/C=C/C=C/c1ccc2c(c1)OCO2 [Piperlonguminine] | 34 | 22 | –
17 | CCn1cc(C(=O)O)c(=O)c2cnc(N3CCCC3)nc21 [Piromidic acid] | 9 | 8 | –
18 | C[C@@H]1O[C@@H](O[C@H]2[C@H](OC(=O)[C@]34CCC(C)(C)C[C@H]3C3=CC[C@@H]5[C@@]6(C)C[C@H](O)[C@H](O[C@@H]7O[C@H](CO)[C@@H](O)[C@H](O[C@@H]8O[C@H](CO)[C@@H](O)[C@H](O)[C@H]8O)[C@H]7O)C(CO)(CO)[C@@H]6CC[C@@]5(C)[C@]3(C)C[C@H]4O)OC[C@H](O)[C@@H]2O)[C@H](O)[C@H](O)[C@H]1O[C@@H]1OC[C@@H](O)[C@H](O[C@@H]2OC[C@](O)(CO)[C@H]2O)[C@H]1O [Platycodin D2] | 0 | 2 | –
19 | C[C@@H]1O[C@@H](O[C@H]2[C@H](OC(=O)[C@]34CCC(C)(C)C[C@H]3C3=CC[C@@H]5[C@@]6(C)C[C@H](O)[C@H](O[C@@H]7O[C@H](CO)[C@@H](O)[C@H](O)[C@H]7O)C(CO)(CO)[C@@H]6CC[C@@]5(C)[C@]3(C)C[C@H]4O)OC[C@H](O)[C@@H]2O)[C@H](O)[C@H](O)[C@H]1O[C@@H]1OC[C@@H](O)[C@H](O[C@@H]2OC[C@](O)(CO)[C@H]2O)[C@H]1O [Platycodin D] | 0 | 15 | –
20 | Cc1cc(CCCOc2c(C)cc(-c3noc(C(F)(F)F)n3)cc2C)on1 [Pleconaril] | 4 | 14 | –
21 | C=C[C@]1(C)C[C@@H](OC(=O)CO)[C@]2(C)[C@H](C)CC[C@]3(CCC(=O)[C@H]32)[C@@H](C)[C@@H]1O [Pleuromutilin] | 33 | 10 | –
22 | COc1cc([C@@H]2c3cc4c(cc3[C@H](O)[C@H]3COC(=O)[C@H]23)OCO4)cc(OC)c1OC [Podofilox] | 0 | 9 | –
23 | C[C@@H]1CC[C@]2(C(=O)O)CC[C@]3(C)C(=CC[C@@H]4[C@@]5(C)CC[C@H](O)C(C)(C)[C@@H]5CC[C@]43C)[C@@H]2[C@]1(C)O [Pomolic acid] | 29 | 67 | –
24 | COc1ccc([C@@H]2CC(=O)c3c(O)cc(O[C@@H]4O[C@H](CO)[C@@H](O)[C@H](O)[C@H]4O[C@@H]4O[C@@H](C)[C@H](O)[C@@H](O)[C@H]4O)cc3O2)cc1 [Poncirin] | 13 | 3 | –
25 | C=C1C(=O)[C@@]23[C@@H]4OC5O[C@@]2(O)[C@@H](O)[C@@H]2C(C)(C)CC[C@@H](O)[C@]52[C@@H]3CC[C@@H]14 [Ponicidin] | 4 | 0 | –

Row | Compound | inhibition at 110 µM [1] [%] | inhibition at 110 µM [2] [%] | also measured
26 | C=C(CC[C@@H](C(=O)O)[C@H]1[C@H](O)C[C@@]2(C)C3=CC[C@@H](C(=C)C)[C@](C)(CCC(=O)O)C3=CC[C@]12C)C(C)C [Poricoic acid A] | – | – | inhibition at 110 µM [3]: 2%; inhibition at 110 µM [4]: 8%
27 | C=C(C)[C@@H]1CC=C2C(=CC[C@]3(C)[C@@H]([C@@H](CCC=C(C)C)C(=O)O)[C@H](O)C[C@@]23C)[C@@]1(C)CCC(=O)O [Poricoic acid B] | 14 | 0 | –
28 | CC[C@@H]([C@H](C)O)n1ncn(-c2ccc(N3CCN(c4ccc(OC[C@@H]5CO[C@@](Cn6cncn6)(c6ccc(F)cc6F)C5)cc4)CC3)cc2)c1=O [Posaconazole] | 23 | 0 | –
29 | O=C(C1CCCCC1)N1CC(=O)N2CCc3ccccc3C2C1 (stereo not shown) [Praziquantel] | 27 | 0 | –
30 | O=C(O)CCc1nc2ccccc2[nH]1 [Procodazole] | – | – | inhibition at 110 µM [3]: 0%; inhibition at 110 µM [4]: 3%
31 | Oc1cc(O)c2c(c1)O[C@H](c1ccc(O)c(O)c1)[C@H](O)[C@H]2c1c(O)cc(O)c2c1O[C@H](c1ccc(O)c(O)c1)[C@H](O)C2 [Procyanidin B2] | 14 | 27 | –
32 | Oc1cc(O)c2c(c1)O[C@H](c1ccc(O)c(O)c1)[C@H](O)[C@H]2c1c(O)cc(O)c2c1O[C@H](c1ccc(O)c(O)c1)[C@H](O)[C@H]2c1c(O)cc(O)c2c1O[C@H](c1ccc(O)c(O)c1)[C@H](O)C2 [Procyanidin C1] | 2 | 29 | –
33 | CC(=O)[C@H]1CC[C@H]2[C@@H]3CCC4=CC(=O)CC[C@]4(C)[C@H]3CC[C@]12C [Progesterone] | 0 | 12 | –
34 | [H]/N=C(\N/C(=N/[H])Nc1ccc(Cl)cc1)NC(C)C [Proguanil] | 36 | 6 | –
35 | CNC(=O)Oc1ccccc1OC(C)C [Propoxur] | 16 | 9 | –
36 | CC(C)NCC(O)COc1cccc2ccccc12 (stereo not shown) [Propranolol, reference compound] | 0 | 0 | inhibition at 110 µM (0 h, read-out: Inhibition (%) 110 μM (0 h), C. elegans L4 motility, 110 μM, 0 h, mean ± SD of four experiments): 84%; inhibition at 110 µM (24 h, read-out: Inhibition (%) 110 μM (24 h), C. elegans L4 motility, 110 μM, 24 h, mean ± SD of four experiments): 35%
37 | CCCOC(=O)c1cc(O)c(O)c(O)c1 [Propyl gallate] | 1 | 0 | –
38 | CCCc1cc(C(N)=S)ccn1 [Prothionamide] | 44 | 7 | –
39 | C=CC1=C(C)c2cc3[nH]c(cc4nc(cc5[nH]c(cc1n2)c(C)c5CCC(=O)O)C(CCC(=O)O)=C4C)c(C)c3C=C [Protoporphyrin IX] | 3 | 17 | –
40 | Cc1oc(=O)oc1CN1CCN(c2cc3c(cc2F)c(=O)c(C(=O)O)c2n3C(C)S2)CC1 (stereo not shown) [Prulifloxacin] | 27 | 0 | –
41 | COc1cc(O)c2c(=O)c(-c3ccc(O)cc3)coc2c1 [Prunetin] | 0 | 7 | –
42 | O=C1C[C@@H](c2ccc(O)cc2)Oc2cc(O[C@@H]3O[C@H](CO)[C@@H](O)[C@H](O)[C@H]3O)cc(O)c21 [Prunin] | 13 | 2 | –
43 | CC1(C)CC[C@]2(C(=O)O[C@@H]3O[C@H](CO)[C@@H](O)[C@H](O)[C@H]3O)CC[C@]3(C)C(=CC[C@@H]4[C@@]5(C)CC[C@H](O[C@@H]6O[C@H](C(=O)O)[C@@H](O)[C@H](O)[C@H]6O[C@@H]6OC[C@@H](O)[C@H](O)[C@H]6O)C(C)(C)[C@@H]5CC[C@]43C)[C@@H]2C1 [Pseudoginsenoside RT1] | 1 | 0 | –
44 | CC(=O)O[C@]12CCC(C)=CC[C@]13CC[C@H]2[C@@](C)(/C=C/C=C(\C)C(=O)O)OC3=O [Pseudolaric Acid A] | 6 | 13 | –
45 | COC(=O)C1=CC[C@@]23CC[C@@H]([C@@](C)(/C=C/C=C(\C)C(=O)O)OC2=O)[C@@]3(OC(C)=O)CC1 [Pseudolaric Acid B] | – | – | inhibition at 110 µM [3]: 0%; inhibition at 110 µM [4]: 9%
46 | CC(=O)O[C@]12CCC(C(=O)O)=CC[C@]13CC[C@H]2[C@@](C)(/C=C/C=C(\C)C(=O)O)OC3=O [Pseudolaric Acid C2] | 0 | 0 | –
47 | COC(=O)C1=CC[C@@]23CC[C@@H]([C@@](C)(/C=C/C=C(\C)C(=O)O)OC2=O)[C@@]3(O)CC1 [Pseudolaric Acid C] | 31 | 42 | –
48 | O=c1ccc2cc3ccoc3cc2o1 [Psoralen] | – | – | inhibition at 110 µM [3]: 14%; inhibition at 110 µM [4]: 14%
49 | CC(C)=C1CC[C@@H](C)CC1=O [Pulegone] | 6 | 5 | –
